Measured values as given in ChEMBL document CHEMBL1201862, “PubChem BioAssay data set” (2004).
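All cell lines were grown in 96-well plates and treated with compound for 48 hours. At the GI50, growth is halved.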 Activity calls are given as the source filed them. No stated cut-off is given here; in the data, active = GI50 up to about 1.1 µM and inactive = higher.

Tests used:
Assay in all cases: NCI tumour cell line growth inhibition, 48 h
ACHN = system: ACHN
CCRF-CEM = system: CCRF-CEM
COLO 205 = system: COLO 205
EKVX = system: EKVX
HOP-62 = system: HOP-62
KM12 = system: KM12
M14 = system: M14
MCF7 = system: MCF7
MOLT-4 = system: MOLT-4
NCI-H23 = system: NCI-H23
NCI/ADR-RES = system: NCI/ADR-RES
SF-295 = system: SF-295
SK-MEL-5 = system: SK-MEL-5
SNB-19 = system: SNB-19
SNB-75 = system: SNB-75
UACC-257 = system: UACC-257
UACC-62 = system: UACC-62
HCC 2998 = system: HCC 2998
NCI-H522 = system: NCI-H522
HOP-92 = system: HOP-92

Compound	GI50 (ACHN)	GI50 (CCRF-CEM)	GI50 (COLO 205)	GI50 (EKVX)	GI50 (HOP-62)	GI50 (KM12)	GI50 (M14)	GI50 (MCF7)	GI50 (MOLT-4)	GI50 (NCI-H23)	GI50 (NCI/ADR-RES)	GI50 (SF-295)	GI50 (SK-MEL-5)	GI50 (SNB-19)	GI50 (SNB-75)	GI50 (UACC-257)	GI50 (UACC-62)	GI50 (HCC 2998)	GI50 (NCI-H522)	GI50 (HOP-92)
CCOC(=O)c1ccc(N(C)Cc2cnc3nc(N)nc(N)c3n2)cc1	5.05 µM (inactive)	89.9 µM (inactive)	> 100 µM (inactive)	24.6 µM (inactive)	13 µM (inactive)	15.8 µM (inactive)	7.83 µM (inactive)	12.6 µM (inactive)	7.91 µM (inactive)	9.04 µM (inactive)	7.8 µM (inactive)	10.2 µM (inactive)	6.1 µM (inactive)	11.6 µM (inactive)	16.3 µM (inactive)	9.77 µM (inactive)	5.42 µM (inactive)	–	–	–
C=C1C(=O)O[C@@H]2C[C@@H](C)[C@@H]3C=CC(=O)[C@@]3(C)[C@@H](O)[C@H]12 [HELENALIN]	1.66 µM (inactive)	0.313 µM (active)	1.56 µM (inactive)	3.13 µM (inactive)	5.89 µM (inactive)	1.53 µM (inactive)	1.98 µM (inactive)	0.78 µM (active)	0.851 µM (active)	1.66 µM (inactive)	–	2.77 µM (inactive)	1.3 µM (inactive)	2.58 µM (inactive)	0.0352 µM (active)	1.59 µM (inactive)	1.39 µM (inactive)	1.51 µM (inactive)	0.242 µM (active)	–
O=C(O)/C=C\C(=O)Nn1c(Cc2ccc(Cl)cc2)n[nH]c1=O	–	> 100 µM (inactive)	> 100 µM (inactive)	> 100 µM (inactive)	> 100 µM (inactive)	–	> 100 µM (inactive)	> 100 µM (inactive)	> 100 µM (inactive)	> 100 µM (inactive)	> 100 µM (inactive)	> 100 µM (inactive)	> 100 µM (inactive)	–	–	> 100 µM (inactive)	> 100 µM (inactive)	> 100 µM (inactive)	> 100 µM (inactive)	–
O=C1Nc2ccccc2C(=O)/C1=C/NC(=S)NCc1ccccc1	> 100 µM (inactive)	–	> 100 µM (inactive)	> 100 µM (inactive)	> 100 µM (inactive)	> 100 µM (inactive)	> 100 µM (inactive)	> 100 µM (inactive)	> 100 µM (inactive)	> 100 µM (inactive)	> 100 µM (inactive)	> 100 µM (inactive)	> 100 µM (inactive)	> 100 µM (inactive)	> 100 µM (inactive)	> 100 µM (inactive)	> 100 µM (inactive)	–	–	> 100 µM (inactive)
CCCCn1c(C)c(C)c2c1NN=C(C#N)S2(=O)=O	> 100 µM (inactive)	–	> 100 µM (inactive)	> 100 µM (inactive)	> 100 µM (inactive)	> 100 µM (inactive)	> 100 µM (inactive)	> 100 µM (inactive)	> 100 µM (inactive)	> 100 µM (inactive)	> 100 µM (inactive)	–	> 100 µM (inactive)	> 100 µM (inactive)	> 100 µM (inactive)	> 100 µM (inactive)	> 100 µM (inactive)	> 100 µM (inactive)	64.7 µM (inactive)	–
O=S1(=O)OCCOS(=O)(=O)C1Cc1nc2ccccc2[nH]1	32.1 µM (inactive)	33 µM (inactive)	83.2 µM (inactive)	> 100 µM (inactive)	26.8 µM (inactive)	68.2 µM (inactive)	44.8 µM (inactive)	33.7 µM (inactive)	24.2 µM (inactive)	41 µM (inactive)	30.3 µM (inactive)	24.7 µM (inactive)	34.7 µM (inactive)	37.2 µM (inactive)	–	29.2 µM (inactive)	–	54.7 µM (inactive)	–	0.114 µM (active)
COCOc1cc(OC)ccc1C/C(=N/O)C(=O)OC	> 100 µM (inactive)	> 100 µM (inactive)	> 100 µM (inactive)	> 100 µM (inactive)	> 100 µM (inactive)	> 100 µM (inactive)	> 100 µM (inactive)	> 100 µM (inactive)	> 100 µM (inactive)	> 100 µM (inactive)	> 100 µM (inactive)	> 100 µM (inactive)	> 100 µM (inactive)	> 100 µM (inactive)	31.8 µM (inactive)	> 100 µM (inactive)	> 100 µM (inactive)	> 100 µM (inactive)	> 100 µM (inactive)	–
CC(=O)Oc1ccc2c(C)cc(=O)oc2c1OC(C)=O	29.1 µM (inactive)	5.4 µM (inactive)	42.8 µM (inactive)	48 µM (inactive)	46.5 µM (inactive)	44 µM (inactive)	39.1 µM (inactive)	49.4 µM (inactive)	34.5 µM (inactive)	26.9 µM (inactive)	24.2 µM (inactive)	47.5 µM (inactive)	37.8 µM (inactive)	41.3 µM (inactive)	27 µM (inactive)	17.7 µM (inactive)	49.1 µM (inactive)	–	–	–
COc1ccc(-n2cnc3c(NC(C)(C)C(=O)O)ncnc32)cc1	> 100 µM (inactive)	> 100 µM (inactive)	> 100 µM (inactive)	84.9 µM (inactive)	> 100 µM (inactive)	> 100 µM (inactive)	> 100 µM (inactive)	> 100 µM (inactive)	> 100 µM (inactive)	> 100 µM (inactive)	> 100 µM (inactive)	> 100 µM (inactive)	> 100 µM (inactive)	> 100 µM (inactive)	> 100 µM (inactive)	> 100 µM (inactive)	> 100 µM (inactive)	> 100 µM (inactive)	–	> 100 µM (inactive)
Cc1ccc(C)n1-n1c(Cc2ccc(Cl)cc2)n[nH]c1=O	> 100 µM (inactive)	36.6 µM (inactive)	83.6 µM (inactive)	69.5 µM (inactive)	> 100 µM (inactive)	46 µM (inactive)	> 100 µM (inactive)	90.4 µM (inactive)	29 µM (inactive)	–	40.8 µM (inactive)	66.2 µM (inactive)	51.8 µM (inactive)	> 100 µM (inactive)	> 100 µM (inactive)	74.8 µM (inactive)	> 100 µM (inactive)	–	20.9 µM (inactive)	–
COc1cc(C(=O)N(C(=O)N2CCCCC2)c2ccccc2)cc(OC)c1OC	> 100 µM (inactive)	> 100 µM (inactive)	> 100 µM (inactive)	> 100 µM (inactive)	> 100 µM (inactive)	> 100 µM (inactive)	> 100 µM (inactive)	> 100 µM (inactive)	> 100 µM (inactive)	> 100 µM (inactive)	> 100 µM (inactive)	> 100 µM (inactive)	> 100 µM (inactive)	> 100 µM (inactive)	> 100 µM (inactive)	> 100 µM (inactive)	> 100 µM (inactive)	> 100 µM (inactive)	–	> 100 µM (inactive)
CC(=O)OCC(C)C1=C(OC(C)=O)C(=O)C2(C)C/C=C(/C)CC/C=C(\C)CCC(OC(C)=O)C(C)CCC12 (stereo unspecified)	18.2 µM (inactive)	22.4 µM (inactive)	20.8 µM (inactive)	–	14.2 µM (inactive)	17.8 µM (inactive)	16.6 µM (inactive)	21.3 µM (inactive)	12.9 µM (inactive)	–	–	15.8 µM (inactive)	15.3 µM (inactive)	17.3 µM (inactive)	24.7 µM (inactive)	17.5 µM (inactive)	14.4 µM (inactive)	15.8 µM (inactive)	–	7.23 µM (inactive)
CCOC(=O)c1cnn2c1ncc1c(=O)n(NC(N)=O)ccc12	> 100 µM (inactive)	> 100 µM (inactive)	> 100 µM (inactive)	> 100 µM (inactive)	> 100 µM (inactive)	> 100 µM (inactive)	> 100 µM (inactive)	> 100 µM (inactive)	> 100 µM (inactive)	> 100 µM (inactive)	–	> 100 µM (inactive)	> 100 µM (inactive)	> 100 µM (inactive)	> 100 µM (inactive)	> 100 µM (inactive)	> 100 µM (inactive)	–	> 100 µM (inactive)	> 100 µM (inactive)
CCCC(=O)N/S(=N/S(=O)(=O)c1ccc(Cl)cc1)C(Cl)(Cl)Cl (stereo unspecified)	> 100 µM (inactive)	> 100 µM (inactive)	–	> 100 µM (inactive)	> 100 µM (inactive)	> 100 µM (inactive)	> 100 µM (inactive)	> 100 µM (inactive)	> 100 µM (inactive)	> 100 µM (inactive)	> 100 µM (inactive)	> 100 µM (inactive)	> 100 µM (inactive)	> 100 µM (inactive)	–	–	> 100 µM (inactive)	> 100 µM (inactive)	–	–
CNc1ccc(Cl)cc1S(=O)(=O)c1ccccc1[N+](=O)[O-]	> 100 µM (inactive)	> 100 µM (inactive)	> 100 µM (inactive)	> 100 µM (inactive)	> 100 µM (inactive)	–	> 100 µM (inactive)	> 100 µM (inactive)	> 100 µM (inactive)	> 100 µM (inactive)	> 100 µM (inactive)	> 100 µM (inactive)	46.7 µM (inactive)	> 100 µM (inactive)	> 100 µM (inactive)	–	> 100 µM (inactive)	> 100 µM (inactive)	> 100 µM (inactive)	–
N#Cc1[nH]c(=O)n(-c2ccc(Cl)cc2)c1N	> 10 µM (inactive)	> 10 µM (inactive)	> 10 µM (inactive)	> 10 µM (inactive)	> 10 µM (inactive)	> 10 µM (inactive)	> 10 µM (inactive)	> 10 µM (inactive)	> 10 µM (inactive)	> 10 µM (inactive)	> 10 µM (inactive)	> 10 µM (inactive)	> 10 µM (inactive)	> 10 µM (inactive)	–	> 10 µM (inactive)	> 10 µM (inactive)	> 10 µM (inactive)	> 10 µM (inactive)	–
